Assay [1] deals with JEV. The experiment in a line: JEV replication in BHK-21 cells, viral RNA by qRT-PCR. The settings on record: for IC50: BHK-21, 24 h, read-out: IC50, reduction of JEV viral RNA. It counts as cell-based. Here is the method: Therefore, we sought to evaluate the efficacy of these compounds against JEV to assess their broad-spectrum anti-viral action against flaviviruses.
BHK-21 cells were seeded in a 24-well cell culture plate at a density of (0.25 × 10^6 cells/well) with regular growth medium containing DMEM + 10% FBS 1 day prior to infection in triplicate. Once the cells reached 85%–90% confluence, they were infected with DENV2 and JEV virus inoculum comprising DMEM + 2% FBS and 10 µM of the compound at an MOI of 0.1. Cells were incubated for 1.5 h at 37 °C with the virus-compound inoculum, with gentle rocking every 10 min to ensure even coverage and prevent the cellular monolayer from drying. […] The cell culture supernatant was aspirated and washed with PBS, and the cellular monolayer was used for viral RNA isolation.
Total cellular RNA was extracted from BHK-21 cells using TRIzol reagent, according to the manufacturer’s instructions (Ambion Life Technologies, USA). RNA quantity and integrity were determined prior to use on a NanoDrop spectrophotometer (Thermo Fisher Scientific). Then, 1 µg of total RNA from each experimental sample was used to synthesize cDNA by reverse transcriptase (RT) by incubating the RNAs with Moloney murine leukemia virus (M-MuLV) RT, with specific RT primer, 5′-[…]-3′ (Tm = 63 °C), and deoxynucleoside triphosphates (dNTPs) (New England Biolabs) at 42 °C for 50 min, followed by inactivation at 70 °C for 15 min.
To quantify the viral RNA copy number, quantitative RT-PCR (qRT-PCR) was performed in duplicate using iTaq Universal SYBR Green Supermix (Bio-Rad). The cDNAs used for qPCR analysis were prepared using Power SYBR Green PCR Master Mix (Bio-Rad, #172–5125) in a QuantStudio5 Applied Biosystems real-time PCR system. […] Delta Ct for both control and compound-treated samples was determined and subsequently analyzed by determining the delta Ct to determine the mRNA expression of target genes in control vs treated samples.
Background: Quantitative PCR measures a nucleic acid by following its amplification.

Assay [2] has as its system JEV. The experiment in a line: Time of drug addition assay, JEV in BHK-21 cells. It counts as cell-based. To be noted: JEV MOI 0.1, BHK-21, 10 µM, viral RNA at 24 hpi. Here is the method:
Considering the mode of action of the compounds 3au and 3aq, they should satisfy this criteria. To evaluate this potential, time of addition experiment was conducted for both compounds to inhibit JEV infection. BHK-21 cells and the virus were pre-treated for 3 h with 10 µM of compounds followed by infection and subsequent incubation in presence of the same (pre + during + post). Alternatively, the compounds (10 µM) were added either during the infection (during + post) or at different times post-infection as indicated (Fig. 9C and D). Virus amplification was measured at 24 hpi by measuring viral RNA accumulation as described above. […] This sustained inhibition indicates a potential therapeutic window for intervention, highlighting the compounds' ability to impede viral replication after initial infection. […] Together, our data not only established the antiviral activity of the compounds against DENV2 and JEV but also pointed out the mechanism of action of these compounds during the specific steps of the virus life cycle.
BHK-21 cells were seeded in a 12-well cell culture plate at a density of (0.5 × 10^6 cells/well). Upon 85%–90% confluency, cells were infected with JEV virus at an MOI of 0.1. Cells were incubated for 1.5 h at 37 °C. […] Cells were harvested at 24 hpi, and the viral genomic RNA levels were quantified using qRT-PCR.

Molecules are shown by their SMILES.

Usually IC50 stands for the concentration needed to halve the response being measured.

Take `COc1ccc(-c2csc(N/N=C(\C)c3cc(O)cc(O)c3)n2)cc1` [3au]: the half-inhibitory concentration (IC50) in the assay with JEV [1] is 1160 ± 160 nM. Also, the “SI, selectivity index (CC50/IC50)” value with JEV [1] (JEV, BHK-21 cells, qRT-PCR IC50) is reported as 67.8. Further, in the assay on JEV [2], the “inhibition of viral replication by time of addition” value is “significantly inhibited viral replication even when added at 9 hpi”.
In the case of `COc1ccc(-c2csc(N/N=C(\C)c3ccc(O)cc3)n2)cc1` [3aq], the half-maximal inhibitory concentration (IC50) in the assay on JEV [1] stood at 1030 ± 210 nM. In addition, the “inhibition of viral replication by time of addition” value in the assay with JEV [2] is given as “significantly inhibited viral replication even when added at 9 hpi”.

For the origin of these results see PMC11963559, “Identification of novel thiazole derivatives as flaviviral protease inhibitors effective against Dengue (DENV2) and Japanese encephalitis viruses” (Antimicrobial Agents and Chemotherapy, 2025).
